Data from US6261767A, “Method for the qualitative and quantitative detection of DNA damage” (Societe Francaise de Recherches et d'Investissements (SFRI), priority 1995, dated 2001).
Starred links: 1 amine or outer side, 2 acyl side, 3 side chain; linkers in the order of their positions; H or OH if unused. Positions of bridges follow the written chain, without caps; N, C: chain ends. Non-standard residues stand in square brackets, D forms with d. Residues, ends and D or L forms follow the SMILES beside them. Chains are numbered I, II in the order given. Actinocin(9to1) = Cc1c2oc3c(C)ccc(C(=O)[*:1])c3nc-2c(C(=O)[*:2])c(N)c1=O; NMeV = CN[C@H](C(=O)O)C(C)C; Sar = CNCC(=O)O

Assays:
[1] = system: repair activity of extracts from HeLa cells; assay: modulation (inhibition) of the repair activity of cellular extracts from HeLa cells on damaged DNA; assay type: biochemical; conditions: FIG. 9
Text: The invention also provides a process for measuring the effect of modulation and the inhibitive effect of the repair of at least one molecule, which comprises the following steps:
preparation of damaged DNA fixed on a sensitized support,
action of a composition comprising at least one cellular extract having a repair activity on this DNA, said extract containing markers, and conjointly the action of at least one molecule having the power of modulating the repair action,
direct or indirect revelation of the markers that may be incorporated in the DNA, in the case of repair, and
comparative reading relative to a control specimen.
d/ Repair in the presence of a cellular extract and of agents of known type, comprising for example for a volume of reaction medium (RM) of 50 μl:
In the course of the repair step, see FIG. 1D, the molecules for which it is sought to show a modulator effect of the repair can be added. These molecules are preferably diluted in water or in dimethylsulfoxide (DMSO).

[2] = system: DNA (plasmid 2959 bp)
[3] = system: DNA damage generated by methylene blue; assay: antioxidant relative activity (R.A.) against DNA damage by photo-activated methylene blue; assay type: biochemical; conditions: summary of the R.A. table
Description: b/ Methylene blue is known to liberate by photo-activation, one atom of oxygen. For the tests to follow, methylene blue was subjected to radiation with visible light for 20 minutes with two bulb lamps of 100 W, a distance between the lamps and the support plates of 30 cm and a concentration of methylene blue of 50 ng/ml. The step of repair of the damage is carried out according to the information indicated above, with the use of the same reaction medium RM. In the same fashion, the plates, after the action of the reaction medium RM are washed three times with the washing solution indicated above, and incubated 15 minutes with a chemiluminescent substrate ("Lumi-Phos 530"). […] For the second test, with methylene blue, the relative activity RA has been calculated of an antioxidant which is equal to: [formula] in which formula: control RLU corresponds to the value of the signal of methylene blue alone subjected to radiation, test RLU corresponds to the value of the signal of methylene blue subjected to […] radiation plus an antioxidant molecule, and reference RLU corresponds to the value of the signal of the antioxidant molecule alone.

[4] = system: DNA damage generated by hydrogen peroxide; assay: inhibition of / antioxidant relative activity (R.A.) against DNA damage by hydrogen peroxide; assay type: biochemical; conditions: 10 μm metallic chelating agent

Cc1c2oc3c(C)ccc(C(=O)N[C@@H]4C(=O)N[C@H](C(C)C)C(=O)N5CCC[C@H]5C(=O)N(C)CC(=O)N(C)[C@@H](C(C)C)C(=O)O[C@@H]4C)c3nc-2c(C(=O)N[C@@H]2C(=O)N[C@H](C(C)C)C(=O)N3CCC[C@H]3C(=O)N(C)CC(=O)N(C)[C@@H](C(C)C)C(=O)O[C@@H]2C)c(N)c1=O [actinomycin D] (I: T[dV]P[Sar][NMeV] / II: T[dV]P[Sar][NMeV]; ester I:1-I:C, II:1-II:C; linker I:N-II:N via Actinocin(9to1))
inhibitor effect on the repair activity [1]: dose- dependent inhibitor effect

CCn1cc(C(=O)O)c(=O)c2ccc(C)nc21 [nalidixic acid]
inhibitor effect on the repair activity [1]: without effect

COS(C)(=O)=O [MMS, methylmethanesulfonate]
effectiveness of damage as shown by the repair ratio (before vs after adsorption of DNA) ([2]; MMS in contact with DNA before the adsorption step, FIG. 7): greater effectiveness of damage

OO [hydrogen peroxide]
quantity for which the maximum ratio of repair is obtained [2]: 0.27 mM

Vitamin A
antioxidant activity (in words) [3]: no antioxidizing effect

CC(=O)N(O)CCCCCNC(=O)CCC(=O)N(O)CCCCCNC(=O)CCC(=O)N(O)CCCCCN [mesylate deferroxamine]
inhibition of the effects of hydrogen peroxide (production of DNA damage) [4]: inhibits totally

COc1cccc2c1C(=O)c1c(O)c3c(c(O)c1C2=O)C[C@@](O)(C(=O)CO)C[C@@H]3O[C@H]1C[C@H](N)[C@H](O)[C@H](C)O1 [doxorubicine]
inhibitor effect on the repair activity [1]: dose- dependent inhibitor effect
